Patent US9999222B2, “Herbicidal combination comprising azines” (BASF SE, priority 2014, dated 2018)
Values joined by “and” are separate entries in the source; they are usually repeats but may differ in a detail not shown here. Equal values may be shown once. Read-outs that look alike come from different tables or passages of the source.

Tests used:
Assay in all cases: Greenhouse test, pre-emergence treatment
VIOAR = format: in vivo, Viola arvensis; settings: Viola arvensis, 480 h, read-out: observed % activity 20 DAT
From the text: (§1) The culture containers used were plastic flowerpots containing loamy sand with approximately 3.0% of humus as the substrate. The seeds of the test plants were sown separately for each species.
(§2) For the pre-emergence treatment, the active ingredients, which had been suspended or emulsified in water, were applied directly after sowing by means of finely distributing nozzles. The containers were irrigated gently to promote germination and growth and subsequently covered with transparent plastic hoods until the plants had rooted. This cover caused uniform germination of the test plants, unless this had been impaired by the active ingredients.
(§3) Depending on the species, the plants were kept at 10-25° C. or 20-35° C., respectively.
(§4) The test period extended over 2 to 4 weeks. During this time, the plants were tended, and their response to the individual treatments was evaluated.
(§5) Evaluation was carried out using a scale from 0 to 100. 100 means no emergence of the plants, or complete destruction of at least the aerial moieties, and 0 means no damage, or normal course of growth. A moderate herbicidal activity is given at values of at least 60, a good herbicidal activity is given at values of at least 70, and a very good herbicidal activity is given at values of at least 85.
(§6) The respective stated components a and b, and if appropriate, c were formulated as a 10% by weight strength emulsion concentrate and, with addition of the amount of solvent system, introduced into the spray liquor used for applying the active compound.
(§7) In the examples, the solvent used was water.
(§8) In the examples below, using the method of S. R. Colby (1967) “Calculating synergistic and antagonistic responses of herbicide combinations”, Weeds 15, p. 22ff., the value E, which is expected if the activity of the individual active compounds is only additive, was calculated. E=X+Y−(X·Y/100) where • X=percent activity using active compound a at an application rate A; • Y=percent activity using active compound b at an application rate B; • E=expected activity (in %) by a+b at application rates A+B.
(§9) If the value found experimentally is higher than the value E calculated according to Colby, a synergistic effect is present.

PHACA = format: in vivo, Phalaris canariensis
From the text: as §1, §2, §3, §4, §5, §6, §7, §8, §9

POLCO = format: in vivo, Polygonum convolvulus; settings: for inhibition at 62 g/ha: use rate 62 g ai/ha; for observed % activity: 20 DAT
In short: (§10)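 Damage was rated on a 0-100 scale, with 100 meaning no emergence or full destruction of aerial parts. Observed combination effects were set against the additive Colby expectation E=X+Y−(X·Y/100). Spray liquor was water-based, from 10% emulsion concentrates, applied pre-emergence right after sowing in loamy sand (about 3.0% humus). Plants were held at 10-25 °C or 20-35 °C for 2 to 4 weeks.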

ECHCG = format: in vivo, Echinocloa crus-galli; settings: Echinochloa crus-galli, 480 h, read-out: observed % activity 20 DAT
From the text: as §1, §2, §3, §4, §5, §6, §7, §8, §9

KCHSC = format: in vivo, Kochia scoparia; settings: for inhibition at 31 g/ha: use rate 31 g ai/ha; for inhibition at 62 g/ha: use rate 62 g ai/ha; for observed % activity: 20 DAT
In short: as §10

SETFA = format: in vivo, Setaria faberi; settings: for inhibition at 7.75 g/ha / inhibition at 15.5 g/ha: Setaria faberi, 480 h, read-out: observed % activity 20 DAT; for inhibition at 15.5 g/ha: use rate 15.5 g ai/ha
From the text: as §1, §2, §3, §4, §5, §6, §7, §8, §9

LOLMU = format: in vivo, Lolium multiflorum; settings: for observed % activity: 20 DAT
From the text: as §1, §2, §3, §4, §5, §6, §7, §8, §9

APESV = format: in vivo, Apera spica-venti; settings: use rate 15.5 g ai/ha
From the text: as §1, §2, §3, §4, §5, §6, §7, §8, §9

ALOMY = format: in vivo, Alopecurus myosuroides
From the text: as §1, §2, §3, §4, §5, §6, §7, §8, §9

GERPU = format: in vivo, Geranium pusillum; settings: pre-emergence, pre-emergence
In short: as §10

SORHA = format: in vivo, Sorghum halepense; settings: 125 g ai/ha, 20 DAT
From the text: as §1, §2, §3, §4, §5, §6, §7, §8, §9

GALAP = format: in vivo, Galium aparine; settings: 20 DAT
In short: as §10

AVEFA = format: in vivo, Avena fatua; settings: 250 g ai/ha, 20 DAT
From the text: as §1, §2, §3, §4, §5, §6, §7, §8, §9

[1] = pre-emergence, use rate 15.5 g ai/ha
[2] = pre-emergence, use rate 31 g ai/ha
[3] = pre-emergence, use rate 62 g ai/ha
[4] = pre-emergence, use rate 7.75 g ai/ha
[5] = Bassia scoparia, pre-emergence, 480 h, KCHSC, pre-emergence, individual, read-out: observed % activity 20 DAT
[6] = Bassia scoparia, pre-emergence, 480 h, pre-emergence, read-out: observed % activity 20 DAT

Structure (SMILES): CC(C)(F)c1nc(N)nc(Nc2c(F)cccc2F)n1 [compound 10, N4-(2,6-difluorophenyl)-6-(1-fluoro-1-methyl-ethyl)-1,3,5-triazine-2,4-diamine]
- inhibition at 7.75 g/ha (VIOAR; use rate 7.75 g ai/ha): 90%
- inhibition at 15.5 g/ha (VIOAR; use rate 15.5 g ai/ha): 85%
- inhibition at 31 g/ha (PHACA; Phalaris canariensis, pre-emergence, 480 h, pre-emergence, use rate 31 g ai/ha, read-out: observed % activity 20 DAT): 80%
- inhibition at 62 g/ha (PHACA; Phalaris canariensis, pre-emergence, 480 h, pre-emergence, use rate 62 g ai/ha, read-out: observed % activity 20 DAT): 75%
- observed % activity 20 DAT (PHACA; [1]): 60%
- observed % activity 20 DAT (PHACA; [2]): 85%
- observed % activity 20 DAT (PHACA; [3]): 70%
- inhibition at 62 g/ha (POLCO; Fallopia convolvulus, pre-emergence, 480 h, POLCO, pre-emergence, individual, read-out: observed % activity 20 DAT): 95%
- inhibition at 7.75 g/ha (POLCO; Fallopia convolvulus, pre-emergence, 480 h, pre-emergence, use rate 7.75 g ai/ha, read-out: observed % activity 20 DAT): 70%
- inhibition at 15.5 g/ha (POLCO; Fallopia convolvulus, pre-emergence, 480 h, pre-emergence, use rate 15.5 g ai/ha, read-out: observed % activity 20 DAT): 90%
- inhibition at 62 g/ha (POLCO; Fallopia convolvulus, pre-emergence, 480 h, pre-emergence, read-out: observed % activity 20 DAT): 95%
- observed % activity 20 DAT (POLCO; [4]): 75%
- inhibition at 7.75 g/ha (ECHCG; use rate 7.75 g ai/ha): 90%
- inhibition at 15.5 g/ha (ECHCG; use rate 15.5 g ai/ha): 95%
- inhibition at 31 g/ha (KCHSC; [5]): 75%
- inhibition at 62 g/ha (KCHSC; [5]): 90%
- inhibition at 16.5 g/ha (KCHSC; Bassia scoparia, pre-emergence, 480 h, pre-emergence, use rate 16.5 g ai/ha, read-out: observed % activity 20 DAT): 65%
- inhibition at 31 g/ha (KCHSC; [6]): 95%
- inhibition at 62 g/ha (KCHSC; [6]): 90%
- observed % activity 20 DAT (KCHSC; [4]): 85% and 55%
- observed % activity 20 DAT (KCHSC; [1]): 85%
- inhibition at 7.75 g/ha (SETFA; SETFA, individual, use rate 7.75 g ai/ha): 90%
- inhibition at 15.5 g/ha (SETFA; SETFA, individual): 98%
- inhibition at 7.75 g/ha (SETFA; use rate 7.75 g ai/ha): 75%
- inhibition at 15.5 g/ha (SETFA): 95%
- observed % activity 20 DAT (SETFA; use rate 7.75 g ai/ha): 65%
- inhibition at 7.75 g/ha (LOLMU; Lolium multiflorum, pre-emergence, 480 h, LOLMU, pre-emergence, individual, use rate 7.75 g ai/ha, read-out: observed % activity 20 DAT): 30%
- inhibition at 31 g/ha (LOLMU; Lolium multiflorum, pre-emergence, 480 h, LOLMU, pre-emergence, individual, use rate 31 g ai/ha, read-out: observed % activity 20 DAT): 70%
- inhibition at 31 g/ha (LOLMU; Lolium multiflorum, pre-emergence, 480 h, pre-emergence, use rate 31 g ai/ha, read-out: observed % activity 20 DAT): 70%
- inhibition at 62 g/ha (LOLMU; Lolium multiflorum, pre-emergence, 480 h, pre-emergence, use rate 62 g ai/ha, read-out: observed % activity 20 DAT): 90%
- observed % activity 20 DAT (LOLMU; [4]): 15% and 20% and 0%
- observed % activity 20 DAT (LOLMU; [1]): 35% and 50% and 25%
- observed % activity 20 DAT (LOLMU; [2]): 80%
- observed % activity 20 DAT (LOLMU; [3]): 85%
- inhibition at 15.5 g/ha (APESV; Apera spica-venti, 480 h, read-out: observed % activity 20 DAT): 95%
- observed % activity 20 DAT (APESV): 98%
- inhibition at 15.5 g/ha (ALOMY; Alopecurus myosuroides, pre-emergence, 480 h, ALOMY, pre-emergence, individual, use rate 15.5 g ai/ha, read-out: observed % activity 20 DAT): 65%
- inhibition at 31 g/ha (ALOMY; Alopecurus myosuroides, pre-emergence, 480 h, ALOMY, pre-emergence, individual, use rate 31 g ai/ha, read-out: observed % activity 20 DAT): 90%
- inhibition at 62 g/ha (ALOMY; Alopecurus myosuroides, pre-emergence, 480 h, ALOMY, pre-emergence, individual, use rate 62 g ai/ha, read-out: observed % activity 20 DAT): 90%
- inhibition at 7.75 g/ha (ALOMY; Alopecurus myosuroides, pre-emergence, 480 h, pre-emergence, use rate 7.75 g ai/ha, read-out: observed % activity 20 DAT): 65%
- inhibition at 31 g/ha (ALOMY; Alopecurus myosuroides, pre-emergence, 480 h, pre-emergence, use rate 31 g ai/ha, read-out: observed % activity 20 DAT): 90%
- inhibition at 62 g/ha (ALOMY; Alopecurus myosuroides, pre-emergence, 480 h, pre-emergence, use rate 62 g ai/ha, read-out: observed % activity 20 DAT): 90%
- observed % activity 20 DAT (ALOMY; [4]): 75%
- observed % activity 20 DAT (ALOMY; [1]): 70% and 95%
- observed % activity 20 DAT (ALOMY; [2]): 98%
- observed % activity 20 DAT (ALOMY; [3]): 95% and 98%
- inhibition at 15.5 g/ha (GERPU; Geranium pusillum, 480 h, use rate 15.5 g ai/ha, read-out: observed % activity 20 DAT): 75%
- observed % activity 20 DAT (GERPU; use rate 7.75 g ai/ha): 50%

Structure (SMILES): COC[C@H](C)N(C(=O)CCl)c1c(C)csc1C [dimethenamid-P]
- observed % activity (PHACA; 125 g ai/ha, 20 DAT): 80%
- observed % activity (POLCO; 125 g ai/ha): 55%
- observed % activity (POLCO; 250 g ai/ha): 50%
- observed % activity (KCHSC; 125 g ai/ha): 40%
- observed % activity (KCHSC; 250 g ai/ha): 85%
- observed % activity (SORHA): 98%
- observed % activity (GALAP; 125 g ai/ha): 30%
- observed % activity (GALAP; 250 g ai/ha): 50%
- observed % activity (LOLMU; 125 g ai/ha): 95%
- observed % activity (LOLMU; 250 g ai/ha): 95%
- observed % activity (AVEFA): 65%
- observed % activity (ALOMY; 125 g ai/ha, 20 DAT): 45%
